Data from US20080206374A1 (priority 2003, published 2008).
Counter-ions that a name gives are not always drawn. Marks after values point to notes of the source that are not given here.

How the values were obtained:
[1] = influence upon the lethal effect of MTX; type: in vivo, mice; conditions: MTX 22 mg/kg i.p.; composition 0.2 ml i.p. daily for eight days
Protocol: 2) The mice were divided into two groups and inoculated the tumor cells according to the method above. […] On the 4th day of the administration, the mice were inoculated tumor cell and intraperitoneally injected 22 mg/kg aqueous solution of MTX after 6 hours of inoculation. Within 10 days after MTX injection, the death rate of animals was observed and the survival rates of the two groups of animals were compared.

[2] = tested on: experimental acute myocardial ischemia of dogs; experiment: experimental acute myocardial ischemia and myocardial infarction of anesthetized dogs (coronary artery ligature); type: in vivo
Protocol: The experimental medicaments were prepared with physiological saline to the same volume (50 ml), and injected through femoral vein at a speed of 5 ml/min with the computer minim syringe pump (Type AJ-5803, Shanghai).
The animals were anaesthetized with pentobarbital sodium (30 mg/kg, i.v), and connected with an electric respirator after tracheal intubation. The chest was opened in the position of the 4th left rib to expose the heart. The pericardium was cut out to make a pericardial bed. The laevorotatory branch of coronary artery was separated and a probe of an electromagnetic flowmeter (Type MF-1100) was placed in to measure the blood flow of coronary artery. The middle section of anterior descending branch of coronary artery was separated and a thread was put through for ligature to make a model of experimental acute myocardium myocardial ischemia. A multipoint fixed epicardium electrode was sewed up and connected with a multirunning physiological recorder (Type RM-6100, Japan Photoelectricity) to display and record the electrocardiogram of epicardium^<1>. The coronary artery was ligated for 15 minutes and recorded as a control value before medicaments administration. The experimental medicaments or physiological saline was injected through the femoral vein. At […] 15, 30, 45, 60, 90, 120, and 180 minutes after medicament administration, 30 measuring points of the epicardium electrocardiogram were recorded. The rising S-T section that is more than 2 mv was taken as a judgment standard to calculate the degree of myocardial ischemia (total mv number of the rising S-T section Σ-ST) and the range of myocardial ischemia (total point number of the rising S-T section N-ST). After intubation through the […] into the coronary vein sinus, the blood oxygen content of coronary vein was measured by a blood oxygen instrument (Type AVL912, Swiss) while the blood samples were taken before ischemia, ischemia 15 min (before administration), at 15, 30, 60, 120, and 180 minutes after medicament administration. Then the animal was intubated into the carotid to measure the blood oxygen content of artery. It was calculated together with the blood flow of coronary artery to measure the myocardial oxygen consumption:
Myocardial oxygen consumption=(blood oxygen content of artery−blood oxygen content of coronary vein)×blood flow of coronary artery/100.
The blood samples were taken at the above-mentioned time points, and then serum creatine phosphate kinase (CK) and lactic dehydrogenase (LDH) were measured with a full-automatic biochemical analyzer (Type RA-1000, USA). And ET, TXB2 and 6-Keto-PGF1 were measured with the Radioimmuno-method and with a full-automatic γ counter (Type FT-630G, Beijing).
When recording was finished at 180 minutes after medicament administration, the heart was taken out immediately, washed with physiological saline and weighed as a whole. Under the ligature line of the heart, the ventricle was cut evenly into 5 pieces parallel to the coronary sulcus. Then the pieces were placed in the N-BT solution and stained at the room temperature for 15 minutes. The infarcted area (N-BT non-stained area) and the non-infarcted area (N-BT stained area) on the lateral sides of each piece of myocardium were measured with a Multimedia Color Pathological Image Analyzing System (Type MPIAS-500, Beijing) The area of each piece of myocardium, the total area of ventricle and the area of the infarcted section were calculated. The percentage of the infarcted area over the ventricle and that over total heart were calculated.
The experimental result was processed statistically and its significance was tested with t-Test.

[3] = tested on: normally anaesthetized dogs; experiment: cardiac hemodynamics and cardiac oxygen consumption of dogs; type: in vivo
Protocol: The experimental medicaments were prepared to the same volume (50 ml) with physiological saline, and injected through femoral vein at a speed of 5 ml/min by the computer minim syringe pump (Type AJ-5803, Shanghai).
The animals were anaesthetized intravenously with pentobarbital sodium (30 mg/kg, i.v), and connected with an electric respirator after tracheal intubation. The chests were opened in the position of the 4th left rib to expose the heart. The pericardium was cut to make a pericardial bed. The laevorotatory branch of coronary artery and the root of aorta were separated and a probe of an electromagnetic flowmeter (Type MF-1100) was placed in to measure the blood flow of coronary artery and cardiac output. The tip of left ventricle was intubated and connected with a pressure energy transducer (MPU-0.5A). The internal pressure of left ventricle was measured with a carrier amplifier (AG-601G), and the maximal ascending rate (dp/dtmax) of the internal pressure of left ventricle was measured with a differentiator (ED-601G). The animals were intubated through the external jugular vein into the coronary vein sinus and also intubated through the carotid. The blood oxygen contents of coronary vein sinus and artery were measured using a blood oxygen instrument (Type AVL912, Swiss) to calculate the myocardial oxygen consumption. Then the femoral artery was intubated to measure the blood pressure of artery. And then with the Standard Limb Lead II of electrocardiogram, the heart rate and the related parameters of electrocardiogram were calculated. With the formula, other indexes of hemodynamics were calculated: cardiac stroke output, oxygen consumption index, cardiac index, resistance of coronary artery, total peripheral resistance and oxygen utility, etc. All the above-mentioned indexes were recorded by a multirunning physiological recorder (Type RM-6000, Japan Photoelectricity) synchronously.
After the operation and the observed indexes being stable, the values before medicament were recorded, and the experimental medicaments were then administered. The values were recorded at 5 minutes of the middle of the process of administration, immediately after, and 1, 3, 5, 10, 15, 30, and 60 minutes after administered medicaments. All the measured indexes and derived parameters were processed statistically. The self-comparisons of the actual measurement values within different time periods after and before administered medicaments were made. Using the t-Test, the changed rate percentages were compared to show the significance between the groups.

[4] = tested on: acute lung injury caused by the lipopolysaccharide; experiment: LPS acute lung injury (ALI) model; type: in vivo, Wistar rats
Protocol: And each of the modeling group, the LPS+DEX Group and LPS+SQ Group was again divided into 3 time phasing groups, that is, a one-hour group, a two-hour group, and a four-hour group. There are 10 groups in total, 6 […] per group in this experiment.
The 18 rats of the LPS+DEX Group were injected abdominally with 50 mg/kg Dexamethasone 2 hours before modeling. The 18 rats of the LPS+NS Group were injected with physiological saline 2 hours before modeling. Except for the normal Control group, all the three above-mentioned groups were injected with LPS (4 mg/kg) in the caudal vein.
After all the animals being anaesthetized with chloral hydrate through abdominal injection at the determined time phasing point, 2 ml blood was sampled from the carotid, and centrifuged at 800 gr/min for 8 minutes. The supernatant was extracted and placed at −20° C. in a refrigerator for future usage. The chest was opened and the lower lobes of the right lung were sampled They were placed in the EP tubes treated with DEPC solution and immediately put at −70° C. in a refrigerator for the total RNA extraction. The upper lobes of the right lung were sampled and dipped in 10% formaldehyde solution to fix. The left lungs were taken for the ratio of wet/dry weight measurement.
4. At the corresponding timing point, the animal lung tissues were taken and observed with human eyes and under the microscope using HE Staining Method. The ratio of tissues wetdry weight was also measured.

[5] = tested on: myocardial ischemia reperfusion injury of rats; experiment: myocardial infarction caused by ischemia reperfusion; type: in vivo; conditions: 1.0 mg/kg
Protocol: The medicaments were diluted to desired concentration with physiological saline. The volume of administered medicament was 4 ml/kg. And the medicaments were given through the left femoral vein.
The animals were anaesthetized by pentobarbital sodium (45 mg/kg) through abdominal cavity and fixed in backstroke position. […] The tracheas were cut open, the trachea cannulas were inserted, and tracheas were connected with a respirometer (Type SC-3, Shanghai) for artificial respiration (32/min, with a respiration ratio of 1:3). The 3rd-5th ribs were cut off after opening the chest, and the pericardiums were opened to expose the heart. A suture (suture No. 0) was put through the root of left anterior descending branch of coronary artery for ligature. After the suture being put through stably for 10 minutes, a plastic concave pipe was placed parallel with the blood vessel, which was then ligated (eliminating the ones without changes of ST and T-wave). The experimental medicaments were administered. After 40 minutes, the ligature suture was cut off along the groove to trigger the reperfusion of the anterior descending branch. The chest was then seamed and independent respiration was recovered.
The bloode samples were taken from the ventral aorta to measure the serum SOD and MDA contents after 2 hours of the ligature. The heart was sliced into 5 pieces under heart ligature and was stained by N-BT. Using a Multimedia Pathological Color Image Analyzing System (Type MPIAS-500, Beijing), the areas of the normal myocardiums and the myocardial infraction were calculated. The degree of myocardial infarction was observed. And the experimental results were statistically analyzed (t-Test).

[6] = LPS 4 mg/kg, DEX 50 mg/kg 2 hours before, SQ 2 ml daily 1 week before
[7] = Dose/kg 0.5 mg, femoral vein, 180 minutes, N-BT staining
[8] = serum after 2 hours of the ligature
[9] = Herbesser Injection, femoral vein

CN(Cc1cnc2nc(N)nc(N)c2n1)c1ccc(C(=O)N[C@@H](CCC(=O)O)C(=O)O)cc1 [MTX, Methotrexate]
Number of Dead Animal after administered MTX, 4th day [1]: 1 | Number of Dead Animal after administered MTX, 5th day [1]: 7 | Number of Dead Animal after administered MTX, 6th day [1]: 3 | Number of Dead Animal after administered MTX, 7th day [1]: 6 | Survival Number after 10 days [1]: 4 | Survival Rate % after 10 days [1]: 19.04%

CCCCC[C@H](O)/C=C/[C@@H]1[C@@H](CC(=O)CCCCC(=O)O)[C@@H](O)C[C@H]1O [Composition 6-Keto-PGF1, 6-keto-prostaglandin F1α]
myocardial oxygen consumption (in words) ([2]; 15 minutes after given): obviously reduced | cardiac stroke output (in words) ([3]; dog, in vivo): markedly increased the cardiac stroke output | resistance of outer periphery (in words) ([3]; dog, in vivo): reduced the resistance of outer periphery

C[C@@H]1C[C@H]2[C@@H]3CCC4=CC(=O)C=C[C@]4(C)[C@@]3(F)[C@@H](O)C[C@]2(C)[C@@]1(O)C(=O)CO [LPS + DEX, Dexamethasone]
Pathological Classification of lung injury: cases Light, 1-hour ([4]; LPS 4 mg/kg caudal vein, DEX 50 mg/kg abdominally 2 hours before, SQ 2 ml abdominally daily 1 week before): 6 | Lung W/D Ratio, 1 h [4, 6]: 4.82 ± 0.23*Δ | Lung W/D Ratio, 2 h [4, 6]: 4.59 ± 0.19*Δ# | Lung W/D Ratio, 4 h [4, 6]: 4.57 ± 0.10*Δ# | Pathological Classification of lung injury: cases Light, 2-hour [4, 6]: 4 | Pathological Classification of lung injury: cases Light, 4-hour [4, 6]: 6 | Pathological Classification of lung injury: cases Middle, 1-hour [4, 6]: 0 | Pathological Classification of lung injury: cases Middle, 2-hour [4, 6]: 2 | Pathological Classification of lung injury: cases Middle, 4-hour [4, 6]: 0 | Pathological Classification of lung injury: cases Severe, 1-hour [4, 6]: 0 | Pathological Classification of lung injury: cases Severe, 2-hour [4, 6]: 0 | Pathological Classification of lung injury: cases Severe, 4-hour [4, 6]: 0 | symptoms (tachypnea, lips cyanosis, mental wilting) after LPS (in words) ([4]; compared with LPS+NS Group): relatively mild | general observation of lung tissues (in words) ([4]; same time phasing points, in comparison to Group LPS+NS): mitigated to different extent

COc1ccc([C@@H]2Sc3ccccc3N(CCN(C)C)C(=O)[C@@H]2OC(C)=O)cc1 [Herbesser, Diltiazem Hydrochloride]
Infarcted Area [2, 7]: 281.30 ± 159.9*** mm^2 | Infarcted Area/heart [2, 7]: 2.27 ± 0.73 | Infarcted Area/ventricle [2, 7]: 7.44 ± 2.61 | increasing activity of serum CK and LDH caused by myocardial ischemia and infarction (in words) ([2]; Herbesser, composition 2.4 g crude drug/kg, P<0.05 vs physiological saline): significantly inhibited | blood flow of coronary artery (in words) ([2]; after ligature of the coronary artery): evident effect of increasing blood flow of coronary artery | ET activity in plasma caused by myocardial ischemia and infarction (in words) ([2]; dog, in vivo): obvious inhibiting effect on the ET activity | blood oxygen content of vein sinus (in words) ([2]; no statistical meaning): effect trend of increasing blood oxygen content of vein sinus | Infarcted Area/heart ([5]; left femoral vein): 16.6 ± 2.6 | Infarcted Area/ventricle % ([5]; left femoral vein): 21.6 ± 4.3 % | The area of myocardial infraction ([5]; left femoral vein): 61.72 ± 9.68** mm^2 | Weight of Infarcted Area ([5]; left femoral vein): 0.154 ± 0.027 g | MDA content of blood serum [5, 8]: 2.35 ± 0.07 µmol/L | SOD content of blood serum [5, 8]: 660.9 ± 159.7 ng/mL | blood flow and resistance of coronary artery (in words) ([3]; Herbesser Injection): markedly increased the blood flow and the resistance of coronary artery | arterial blood pressure (in words) [3, 9]: obvious effect of reducing blood pressure | heart rate (in words) [3, 9]: slowing down heart rate
